# Measured values reported in patent publication US20090147264A1, “LABEL-FREE, REAL-TIME DETECTION SYSTEM FOR MOLECULAR INTERACTION ANALYSIS” (The University of Pittsburgh - Of the Commonwealth System …, priority 2007, published 2009).
# Legend:
# RAGE = RAGE (Homo sapiens, UniProt Q15109); assay: BLI binding of sRAGE to HMGB1 in the presence of DNA; settings: for Kd: sRAGE binding to HMGB1 in the presence of the DNA, + CP = with cisplatin, read-out: Affinity to RAGE
# HMGB1 [1] = target: T1, HMGB1 (Homo sapiens, UniProt P09429); assay: Biolayer interferometry (BLI) binding of DNA to HMGB1 coupled to a biolayer sensor; settings: for Kd: HMGB1 amide-coupled to biolayer sensor, + CP = with cisplatin, read-out: Affinity to HMGB1; for effect of addition of platinum compound on DNA binding / affinity of DNA to HMGB1: platinum compound added to DNA
# T1 sequence (P09429 1-215): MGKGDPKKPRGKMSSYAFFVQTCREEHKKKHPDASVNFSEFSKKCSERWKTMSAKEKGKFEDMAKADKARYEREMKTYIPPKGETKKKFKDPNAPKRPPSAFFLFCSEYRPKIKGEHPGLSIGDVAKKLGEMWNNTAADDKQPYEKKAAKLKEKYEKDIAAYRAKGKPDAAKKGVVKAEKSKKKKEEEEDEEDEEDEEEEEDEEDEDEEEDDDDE
# HMGB1 [2] = target: HMGB1 (Homo sapiens?) (UniProt P09429); assay: BLI; settings: given as affinity, unit not stated (M assumed)
# Sequence of RAGE (Q15109 23-342 limits assumed, one chain of several): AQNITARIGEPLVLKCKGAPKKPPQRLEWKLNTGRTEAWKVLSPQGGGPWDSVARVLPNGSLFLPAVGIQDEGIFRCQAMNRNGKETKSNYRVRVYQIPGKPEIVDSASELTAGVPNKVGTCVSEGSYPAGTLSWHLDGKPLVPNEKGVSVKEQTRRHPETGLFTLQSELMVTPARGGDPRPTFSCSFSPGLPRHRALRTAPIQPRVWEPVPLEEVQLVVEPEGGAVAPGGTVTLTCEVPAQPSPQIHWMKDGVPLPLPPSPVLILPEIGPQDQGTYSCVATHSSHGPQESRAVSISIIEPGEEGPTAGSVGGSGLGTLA
Compound,Kd (RAGE),Kd (HMGB1 [1]),effect of addition of platinum compound on DNA binding / affinity of DNA to HMGB1 (HMGB1 [1]),other results
5′-CCTCTCTGGACCTTCC*T*T*T*T*GGAAGGTCCAGAGA*G*G [Oligo 1],8.7 nM,6.6 nM,–,–
5′-CTGGACCTTCC*T*T*T*T*GGAAGGTCC*A*G [Oligo 2],4.3 nM,33 nM,–,–
"5′-GTA cGA agT CCG TTC cTa GGC tTG ct-3′ (5'-GTA cGA agT CCG TTC cTa GGC tTG ct-3'; as printed in the source, key not given here) [Scrambled 2, scrambled hairpin oligonucleotide used as a control]",3.9 nM,180 nM,–,–
"5′-cTC CGA CGc tCA aTG cTG GTA CGG Tat CCG TgT TAG-3′ (CTCCGACGCTCAATGCTGGTACGGTATCCGTGTTAG; chemistry not given here) [Scrambled 1, scrambled hairpin oligonucleotide used as a control]",8.7 nM,51 nM,–,–
"N.N.O=C([O-])C1(C(=O)[O-])CCC1.[Pt+2] [carboplatinum, carboplatin]",–,–,enhanced DNA binding,–
N.N.[Cl][Pt][Cl] [cisplatin],–,–,increases the affinity,effect of cisplatin on affinity between sRAGE and HMGB1 (RAGE; in the presence of cisplatin): No increased affinity; effect of addition of platinum compound on DNA binding / affinity of DNA to HMGB1 (HMGB1 [1]; listed as cis-platinum): enhanced DNA binding
O=C1[O][Pt]2([NH][C@@H]3CCCC[C@H]3[NH]2)[O]C1=O [oxaliplatin],–,–,enhanced DNA binding,–
Circular DNA,–,–,–,Kd (HMGB1 [2]; p52 says circular DNA not measured well): 3.6 nM
Linear DNA,–,–,–,Kd (HMGB1 [2]): 0.014 nM
